Test results reported in patent publication US20060128726A1, “Process for preparing novel crystalline forms of (2S)-1-[[(7R)-7-(3,4-dichlorophenyl)-4,7-dihydro-5-methylpyrazolo[1,5]pyrimidine-6-yl]carbonyl]-2-(4-fluorophenyl)pyrrolidine, novel stable forms produced therein and formulations” (priority 2004, published 2006).
≈ marks a conversion by molar mass, not a printed value. One block for each molecule: values may come before it.

Tests used:
[1] = slurry conversion of polymorph mixtures (relative thermodynamic stability); type: physicochemical; conditions: mixtures of H2-1 and H2-2 in aqueous ethanol slurries; conversion observed at 5, 25, 50 and 80° C.
aqueous solubility = type: physicochemical; conditions: water; depending on crystalline form
[2] = solid-state stability (light, heat, physical and chemical); type: physicochemical
[3] = target: ultrarapidly activating, sustained potassium current (IKur, also known as Kv1.5) (Homo sapiens, UniProt P22460); conditions: cited from earlier work
hygroscopicity = type: physicochemical
oral bioavailability = conditions: in vivo

Chain of ultrarapidly activating, sustained potassium current (IKur, also known as Kv1.5) (P22460 whole entry): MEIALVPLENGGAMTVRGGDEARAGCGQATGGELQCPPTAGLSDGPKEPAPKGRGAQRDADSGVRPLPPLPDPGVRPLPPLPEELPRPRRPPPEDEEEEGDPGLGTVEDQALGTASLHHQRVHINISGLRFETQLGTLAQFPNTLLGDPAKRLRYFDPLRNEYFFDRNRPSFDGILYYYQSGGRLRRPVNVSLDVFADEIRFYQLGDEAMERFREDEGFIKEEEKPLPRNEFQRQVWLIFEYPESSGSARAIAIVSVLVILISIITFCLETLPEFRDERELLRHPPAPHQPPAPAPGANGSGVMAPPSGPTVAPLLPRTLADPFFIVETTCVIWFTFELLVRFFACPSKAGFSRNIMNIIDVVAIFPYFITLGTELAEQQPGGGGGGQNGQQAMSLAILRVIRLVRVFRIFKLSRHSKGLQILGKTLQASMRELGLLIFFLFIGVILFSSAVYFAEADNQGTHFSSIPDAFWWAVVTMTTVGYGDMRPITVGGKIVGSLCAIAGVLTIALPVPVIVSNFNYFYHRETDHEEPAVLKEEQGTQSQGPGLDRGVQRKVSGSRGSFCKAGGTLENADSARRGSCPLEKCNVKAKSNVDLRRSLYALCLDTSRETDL

SMILES: CC1=C(C(=O)N2CCC[C@H]2c2ccc(F)cc2)[C@@H](c2ccc(Cl)c(Cl)c2)n2nccc2N1 [H2-2 dihydrate]
relative thermodynamic stability of polymorphs [1]: thermodynamically more stable than the H2-1 dihydrate

solubility (aqueous solubility): 2 to 4 µg/mL (≈ 4.24 to 8.49 µM) | sensitivity to light and heat ([2]; amorphous form and crystalline forms): sensitive to light and heat
SMILES: CC1=C(C(=O)N2CCC[C@H]2c2ccc(F)cc2)[C@@H](c2ccc(Cl)c(Cl)c2)n2nccc2N1 [IKur compound, (2S)-1-[[(7R)-(3,4-dichlorophenyl)-4,7-dihydro-5-methylpyrazolo[1,5-]pyrimidine-6-yl]carbonyl]-2-(4-fluorophenyl)pyrrolidine]
blocking of IKur (Kv1.5) [3]: selective blocker

solid-state stability (physical and chemical) [2]: satisfactory solid-state stability | hygroscopicity (hygroscopicity): low hygroscopicity | oral bioavailability (oral bioavailability): satisfactory oral bioavailability
SMILES: CC1=C(C(=O)N2CCC[C@H]2c2ccc(F)cc2)[C@@H](c2ccc(Cl)c(Cl)c2)n2nccc2N1 [N-3 anhydrate]
